Bounds are passed on as bounds.

The assay relates to human JAK1 (a.a. 837-1142). In words: In vitro JAK kinase assay (HTRF), JAK1. It counts as biochemical. The conditions noted are these: ratio of IC50s, 1 mM ATP. The method, then:
Compounds herein were tested for inhibitory activity of JAK targets according to the following in vitro assay described in Park et al., Analytical Biochemistry 1999, 269, 94-104. The catalytic domains of human JAK1 (a.a. 837-1142), JAK2 (a.a. 828-1132) and JAK3 (a.a. 781-1124) were expressed using baculovirus in insect cells and purified. The catalytic activity of JAK1, JAK2 or JAK3 was assayed by measuring the phosphorylation of a biotinylated peptide. The phosphorylated peptide was detected by homogenous time resolved fluorescence (HTRF). IC50s of compounds were measured for each kinase in the 40 μL reactions that contain the enzyme, ATP and 500 nM peptide in 50 mM Tris (pH 7.8) buffer with 100 mM NaCl, 5 mM DTT, and 0.1 mg/mL (0.01%) BSA. For the 1 mM IC50 measurements, ATP concentration in the reactions was 1 mM. Reactions were carried out at room temperature for 1 hour and then stopped with 20 μL 45 mM EDTA, 300 nM SA-APC, 6 nM Eu-Py20 in assay buffer (Perkin Elmer, Boston, Mass.). Binding to the Europium labeled antibody took place for 40 minutes and HTRF signal was measured on a PHERA star plate reader (BMG, Cary, N.C.). The Example compounds were each tested in the Example A assay (see Table 1 for data for the compounds of the examples as tested by the assay of Example A at 1 mM ATP).
On to `C[C@H](O)c1nc2cnc3ccsc3c2n1[C@H]1CC[C@H](CC#N)OC1` [Example 45, ((2R,5S)-5-{2-[(1S)-1-Hydroxyethyl]-1H-imidazo[4,5-d]thieno[3,2-b]pyridin-1-yl}tetrahydro-2H-pyran-2-yl)acetonitrile], for which the JAK2/JAK1 is greater than 10. Regarding `C[C@@H](O)c1nc2cnc3ccsc3c2n1[C@H]1CC[C@@H](CC#N)C1.O=C(O)C(F)(F)F` [Example 49, ((1R,3S)-3-{2-[(1R)-1-Hydroxyethyl]-1H-imidazo[4,5-d]thieno[3,2-b]pyridin-1-yl}cyclopentyl)acetonitrile Trifluoroacetate], the JAK2/JAK1 is greater than 10. Consider `C[C@@H](O)c1nc2cnc3ccsc3c2n1[C@H]1CCCN(C(=O)CCc2cccnc2)C1` [Example 54, (1R)-1-{1-[(3S)-1-(3-Pyridin-3-ylpropanoyl)piperidin-3-yl]-1H-imidazo[4,5-d]thieno[3,2-b]pyridin-2-yl}ethanol], for which the JAK2/JAK1 is greater than 10. As to `CC(C)OC(=O)NC[C@H]1CC[C@H](n2c([C@@H](C)O)nc3cnc4ccsc4c32)CO1` [Example 76, Isopropyl [((2R,5S)-5-{2-[(1R)-1-hydroxyethyl]-1H-imidazo[4,5-d]thieno[3,2-b]pyridin-1-yl}tetrahydro-2H-pyran-2-yl)methyl]carbamate], the JAK2/JAK1 is given as greater than 10. On to `C[C@@H](O)c1nc2cnc3ccsc3c2n1C1CCN(CCC#N)CC1` [Example 16, 3-(4-{2-[(1R)-1-Hydroxyethyl]-1H-imidazo[4,5-d]thieno[3,2-b]pyridin-1-yl}piperidin-1-yl)propanenitrile], for which the JAK2/JAK1 was greater than 10. Take `C[C@@H](O)c1nc2cnc3ccsc3c2n1[C@H]1CC[C@@H](C#N)CC1` [Example 7, cis-4-{2-[(1R)-1-Hydroxyethyl]-1H-imidazo[4,5-d]thieno[3,2-b]pyridin-1-yl}cyclohexanecarbonitrile]: the JAK2/JAK1 is greater than 10.

Turning to `C[C@@H](O)c1nc2cnc3ccsc3c2n1[C@H]1CC[C@@H](CC#N)OC1` [Example 21, ((2S,5S)-5-{2-[(1R)-1-Hydroxyethyl]-1H-imidazo[4,5-d]thieno[3,2-b]pyridin-1-yl}tetrahydro-2H-pyran-2-yl)acetonitrile], the JAK2/JAK1 is reported as greater than 10. Turning to `COC(=O)NC[C@H]1CC[C@H](n2c(CC#N)nc3cnc4ccsc4c32)CC1` [Example 86, Methyl ({trans-4-[2-(cyanomethyl)-1H-imidazo[4,5-d]thieno[3,2-b]pyridin-1-yl]cyclohexyl}methyl)carbamate], the JAK2/JAK1 is reported as greater than 10. As to `C[C@@H](O)c1nc2cnc3ccsc3c2n1[C@H]1CCN(CCC#N)C1` [Example 62, 3-((3S)-3-{2-[(1R)-1-Hydroxyethyl]-1H-imidazo[4,5-d]thieno[3,2-b]pyridin-1-yl}pyrrolidin-1-yl)propanenitrile], the JAK2/JAK1 is greater than 10. As to `C[C@@H](O)c1nc2cnc3ccsc3c2n1[C@H]1CC[C@H](O)CC1` [Example 3, trans-4-{2-[(1R)-1-Hydroxyethyl]-1Z-imidazo[4,5-d]thieno[3,2-b]pyridin-1-yl}cyclohexanol], the JAK2/JAK1 is recorded as greater than 10. With `C[C@@H](O)c1nc2cnc3ccsc3c2n1[C@@H]1CC[C@@H](CC#N)OC1` [Example 44, ((2S,5R)-5-{2-[(1R)-1-Hydroxyethyl]-1H-imidazo[4,5-d]thieno[3,2-b]pyridin-1-yl}tetrahydro-2H-pyran-2-yl)acetonitrile], the JAK2/JAK1 is on record as greater than 10. On to `C[C@@H](O)c1nc2cnc3ccsc3c2n1[C@H]1CC[C@H](CNS(C)(=O)=O)CC1` [Example 80, N-[(trans-4-{2-[(1R)-1-Hydroxyethyl]-1H-imidazo[4,5-d]thieno[3,2-b]pyridin-1-yl}cyclohexyl)methyl]methanesulfonamide], for which the JAK2/JAK1 is listed as greater than 10. In the case of `CN1CC(c2nc3cnc4ccsc4c3n2[C@H]2CC[C@H](CC#N)CC2)C1` [Example 29, {trans-4-[2-(1-Methylazetidin-3-yl)-1H-imidazo[4,5-d]thieno[3,2-b]pyridin-1-yl]cyclohexyl}acetonitrile], the JAK2/JAK1 was greater than 9.

The values are drawn from patent US11161855B2, “Tricyclic fused thiophene derivatives as JAK inhibitors” (Incyte Corporation, priority 2012, dated 2021).
